# Experimental data from patent US20220193081A1 (Ellamed IP & Services PTE. LTD., priority 2019, published 2022).
# Where two headings read alike, the source gives them in different places.
# Assay type: physicochemical
# Protocol: 840 mg of sildenafil base (Carbosynth) was introduced into 40 ml of 50% aqueous ethanol at an unadjusted pH of 7.7. […] Finally, the pH of the mixture was further lowered to a pH of approximately 4 by the introduction of additional 1M HCl upon which the mixture began to solubilize.
# 840 mg of sildenafil base (Carbosynth), together with 840 mg of sucralose was introduced into 40 ml of 50% aqueous ethanol at an unadjusted pH of 7.7. […] The pH of the mixture was further lowered to a pH of approximately 4.6 by the introduction of additional 1M HCl upon which the mixture began to solubilize. Additional 1M HCl was added to the mixture until it completely solubilized at a pH of 3.83.
# 945 mg of sildenafil base (Carbosynth), together with 945 mg of sucralose was introduced into 45 ml of 50% aqueous ethanol at an unadjusted pH of 7.7. […] The pH of the mixture was then lowered to by the stepwise introduction of 1M HCl during stirring until the mixture was fully solubilized at pH 4.92.
structure (smiles),measurement,setting,value
CCCc1nn(C)c2c(=O)[nH]c(-c3cc(S(=O)(=O)N4CCN(C)CC4)ccc3OCC)nc12 [sildenafil base],pH at which the mixture completely solubilized,,3.83
same,pH at which the mixture was fully solubilized,,4.92
same,dissolution,"Example 1a: 840 mg in 40 ml, pH 5.6 (1M HCl), stirred 10 minutes",remaining opaque and undissolved
same,dissolution,"Example 1a: 840 mg in 40 ml, stirred at pH 4.25 for 1 hour, final pH 4.28",totally transparent and without precipitate
same,dissolution,"Example 1a: 840 mg in 40 ml, unadjusted pH 7.7, stirring 10 minutes",remained undissolved
same,dissolution,"Example 1b: 840 mg with 840 mg sucralose in 40 ml, pH 5.6 (1M HCl), stirred 10 minutes",remaining opaque and undissolved
same,dissolution,"Example 1b: 840 mg with 840 mg sucralose in 40 ml, unadjusted pH 7.7, stirring 10 minutes",remained undissolved
same,dissolution,"Example 1c: 945 mg with 945 mg sucralose in 45 ml, unadjusted pH 7.7, stirring 10 minutes",remained undissolved
